Source: article PMC4667793 (Journal of medicinal chemistry, 2015)
Where “and” joins values, the source holds several entries; their conditions need not be identical. Equal values may be shown once. Where a name gives a salt, the structure may show the parent alone.

Key:
[1] = target: T1, MtBPL (Mycobacterium tuberculosis, UniProt I6YFP0); conditions: for ΔG: from K of displacement ITC, 298 K
[2] = target: T1, MtBPL; conditions: for -TΔS: calculated from ΔG (displacement) and ΔH (direct titration); for ΔH: direct titration ITC, 25 °C
[3] = target: T1, MtBPL; experiment: biochemical; conditions: read-out: ΔTm
[4] = tested on: M. tuberculosis H37Rv; experiment: microbe, parasite or virus in culture; conditions: Mycobacterium tuberculosis
[5] = target: T1, MtBPL; experiment: biochemical
[6] = cyclonucleoside formation or decomposition at room temperature
[7] = tested on: MDR-TB and XDR-TB strains; conditions: ten MDR-TB and XDR-TB strains; cited from earlier work

T1 sequence (I6YFP0 whole entry, looked up): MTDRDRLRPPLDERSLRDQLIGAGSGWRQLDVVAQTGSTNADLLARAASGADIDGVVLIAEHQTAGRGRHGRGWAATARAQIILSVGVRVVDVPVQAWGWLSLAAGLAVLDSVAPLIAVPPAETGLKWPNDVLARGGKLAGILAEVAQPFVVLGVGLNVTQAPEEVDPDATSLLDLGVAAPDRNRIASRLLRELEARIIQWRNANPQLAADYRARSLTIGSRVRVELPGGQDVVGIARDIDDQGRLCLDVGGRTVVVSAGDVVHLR

Compound	ΔG [1]	-TΔS [2] [kcal/mol]	ΔH [2]	ΔTm at 43 µM [3] [°C]	MIC90 [4] [µM]	fold more potent than 14 (KD) [1] [fold]	Kd [5] [nM]	chemical stability [6]	MIC [7] [µM]
CCN(CC)CC.Nc1ncnc2c1ncn2[C@H]1C=C[C@@H](CNS(=O)(=O)NC(=O)CCCC[C@@H]2SC[C@@H]3NC(=O)N[C@@H]32)C1 [Compound 34]	-11.8 ± 0.2 kcal/mol	10.3 ± 0.2	-22.1 ± 0.2 kcal/mol	–	–	–	–	–	–
[N-]=[N+]=N[C@H]1[C@H](O)[C@@H](COS(=O)(=O)NC(=O)CCCC[C@@H]2SC[C@@H]3NC(=O)N[C@@H]32)O[C@H]1n1cnc2c(N)ncnc21 [Compound 57, 9-{2′-Azido-5′-O-[N-(D-biotinoyl)sulfamoyl]-2′-deoxy-β-D-arabinofuranosyl}adenine triethylammonium salt]	-14.4 ± 0.2 kcal/mol	14.9 ± 0.1	–	17 ± 1	> 100	32	0.027	resisted any cyclonucleoside formation	–
CCN(CC)CC.Nc1ncnc2c1ncn2[C@@H]1O[C@H](CNS(=O)(=O)NC(=O)CCCC[C@@H]2SC[C@@H]3NC(=O)N[C@@H]32)C[C@H]1O [Compound 87, 5′-[N-(D-Biotinoyl)sulfamoyl]amino-3′,5′-dideoxyadenosine triethylammonium salt]	-12.6 ± 0.1 kcal/mol	8.8 ± 0.6	-21.4 ± 0.5 kcal/mol	–	–	–	–	–	–
Nc1ncnc2c1ncn2[C@@H]1O[C@H](CNS(=O)(=O)NC(=O)CCCC[C@@H]2SC[C@@H]3NC(=O)N[C@@H]32)[C@@H](O)[C@H]1O [Compound 14, 5′-[N-(D-biotinoyl)sulfamoyl]amino-5′-deoxyadenosine triethylammonium salt]	–	6.6 ± 0.1	-18.9 ± 0.1 kcal/mol	–	–	–	–	–	0.16 to 0.625
CCN(CC)CC.Nc1ncnc2c1ncn2[C@@H]1O[C@H](COS(=O)(=O)NC(=O)CCCC[C@@H]2SC[C@@H]3NC(=O)N[C@@H]32)[C@@H](O)[C@@H]1F [Compound 69, 9-{5′-O-[N-(D-Biotinoyl)sulfamoyl]-2′-deoxy-2′-fluoro-β-D-arabinofuranosyl}adenine triethylammonium salt]	-13.4 ± 0.0 kcal/mol	14.7 ± 0.5	-28.4 kcal/mol and -28.4 ± 0.6 kcal/mol	–	–	–	–	resisted any cyclonucleoside formation	–
CCN(CC)CC.[N-]=[N+]=N[C@@H]1[C@H](O)[C@@H](CNS(=O)(=O)NC(=O)CCCC[C@@H]2SC[C@@H]3NC(=O)N[C@@H]32)O[C@H]1n1cnc2c(N)ncnc21 [Compound 46]	-12.3 ± 0.6 kcal/mol	10.9 ± 0.3	-23.2 ± 0.2 kcal/mol	–	–	–	–	–	–
CCN(CC)CC.Nc1ncnc2c1ncn2[C@H]1CNC[C@@H](COS(=O)(=O)NC(=O)CCCC[C@@H]2SC[C@@H]3NC(=O)N[C@@H]32)O1 [Compound 82, (2′R,6′S)-9-[6′-({[N-(D-Biotinoyl)sulfamoyl]oxy}methyl)morpholin-2′-yl]adenine triethylammonium salt]	-12.9 ± 0.9 kcal/mol	5.9 ± 0.1	-18.8 ± 0.0 kcal/mol	–	–	–	–	–	–
CCN(CC)CC.Nc1ncnc2c1ncn2[C@@H]1O[C@H](CNS(=O)(=O)NC(=O)CCCC[C@@H]2SC[C@@H]3NC(=O)N[C@@H]32)[C@@H](O)[C@H]1F [Compound 63, 5′-[N-(D-Biotinoyl)sulfamoyl]amino-2′,5′-dideoxy-2′-fluoroadenosine triethylammonium salt]	-12.6 ± 0.3 kcal/mol	11.8 ± 0.5	-24.3 kcal/mol and -24.3 ± 0.5 kcal/mol	–	–	–	–	–	–
CCN(CC)CC.Nc1ncnc2c1ncn2[C@@H]1O[C@H](CNS(=O)(=O)NC(=O)CCCC[C@@H]2SC[C@@H]3NC(=O)N[C@@H]32)[C@@H](O)[C@H]1N [Compound 47]	-12.6 ± 1.0 kcal/mol	6.5 ± 0.2	-19.1 ± 0.1 kcal/mol	–	–	–	–	–	–
CCN(CC)CC.Nc1ncnc2c1ncn2[C@H]1CC[C@@H](CNS(=O)(=O)NC(=O)CCCC[C@@H]2SC[C@@H]3NC(=O)N[C@@H]32)C1 [Compound 36]	-12.6 ± 0.2 kcal/mol	10.7 ± 0.4	-23.5 ± 0.4 kcal/mol	–	–	–	–	–	–
CCN(CC)CC.Nc1ncnc2c1ncn2[C@@H]1C[C@H](CNS(=O)(=O)NC(=O)CCCC[C@@H]2SC[C@@H]3NC(=O)N[C@@H]32)[C@@H](O)[C@H]1O [Compound 28]	-12.4 kcal/mol and -12.4 ± 0.0 kcal/mol	7.8 ± 0.2	-20.2 ± 0.2 kcal/mol	–	–	–	–	–	–
CCN(CC)CC.C[C@@]1(O)[C@H](O)[C@@H](COS(=O)(=O)NC(=O)CCCC[C@@H]2SC[C@@H]3NC(=O)N[C@@H]32)O[C@H]1n1cnc2c(N)ncnc21 [Compound 73, 5′-O-[N-(D-Biotinoyl)sulfamoyl]-β-2'-methyladenosine triethylammonium salt]	-12.4 ± 0.4 kcal/mol	8.1 ± 0.5	-20.3 ± 0.4 kcal/mol	–	–	–	–	resisted any cyclonucleoside formation	–
